# Assays:
# Type in all cases: biochemical
# [1] = biological target: T1, human liver X receptor α-GST fusion protein (LXR-α) (Homo sapiens, UniProt Q13133); test: Agonist assay with nuclear receptor-GST fusion protein, LXR-α; settings: FIG. 9
# T1 construct: made in house
# T1 sequence (Q13133 209-447 limits assumed): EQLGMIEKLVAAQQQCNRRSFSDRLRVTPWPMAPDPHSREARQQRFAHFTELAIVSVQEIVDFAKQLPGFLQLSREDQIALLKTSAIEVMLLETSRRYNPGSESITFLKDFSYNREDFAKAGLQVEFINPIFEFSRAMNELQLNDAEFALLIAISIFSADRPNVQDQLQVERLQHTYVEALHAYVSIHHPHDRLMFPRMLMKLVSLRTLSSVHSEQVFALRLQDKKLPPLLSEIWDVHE
# [2] = biological target: T2, human liver X receptor β-GST fusion protein (LXR-β) (Homo sapiens, UniProt P55055); test: Agonist assay with nuclear receptor-GST fusion protein, LXR-β; settings: FIG. 9
# T2 construct: made in house
# T2 sequence (P55055 222-460 limits assumed): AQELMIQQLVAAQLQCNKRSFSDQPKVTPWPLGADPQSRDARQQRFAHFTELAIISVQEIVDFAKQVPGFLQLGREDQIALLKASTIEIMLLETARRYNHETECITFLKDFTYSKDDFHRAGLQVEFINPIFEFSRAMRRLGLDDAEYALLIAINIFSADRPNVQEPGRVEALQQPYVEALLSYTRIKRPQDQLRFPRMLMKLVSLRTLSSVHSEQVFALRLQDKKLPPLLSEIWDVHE
# [3] = biological target: T3, human estrogen receptor α-GST fusion protein (ER-α) (Homo sapiens, UniProt P03372); test: Assay of ligand using coactivator SRC1-bound plate, ER-α (present detection method); settings: HRP-labeled anti-GST antibody, 450 nm, FIG. 6
# T3 construct: made in house; host or cells: Escherichia coli BL21
# T3 sequence (P03372 311-547 limits assumed): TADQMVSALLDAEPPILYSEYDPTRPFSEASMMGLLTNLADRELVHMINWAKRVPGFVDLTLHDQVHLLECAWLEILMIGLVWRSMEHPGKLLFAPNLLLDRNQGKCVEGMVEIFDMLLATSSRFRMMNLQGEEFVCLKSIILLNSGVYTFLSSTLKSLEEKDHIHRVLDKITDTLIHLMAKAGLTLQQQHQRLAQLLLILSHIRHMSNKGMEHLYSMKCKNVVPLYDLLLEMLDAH
# Description: In a manner similar to that of the aforementioned existing method, a purified ER-α product (10 mL) was prepared from an ER-α cell culture (1 L). By use of this product, the amount of an assay reagent prepared was examined as described hereinbelow. Avidin was immobilized on a plate in advance, and a biotinylated coactivator SRC1 (0.01 mg/mL, dissolved in DMSO) was prepared into a solution (final concentration: […]) by use of a washing buffer. The thus-prepared solution was dispensed into the plate (100 μL/well), followed by impregnation for one hour, to thereby prepare an SRC1-bound plate. […] After reaction with shaking for one hour, the plate was washed with a washing buffer, and an HRP-labeled anti-GST antibody solution prepared by diluting the antibody with a washing buffer by a factor of 1/40,000 was dispensed into the plate (100 μL/well), followed by reaction with shaking for one hour. After reaction, the plate was washed with a washing buffer; a color-developing reagent was added to the plate (100 μL/well); and the plate was allowed to stand still for 10 minutes for color development reaction. Color development reaction was stopped by use of 1 N sulfuric acid, followed by measurement at a wavelength of 450 nm by means of a plate reader.
# An HRP-labeled anti-GST antibody was employed for assay.
# [4] = biological target: T4, human estrogen receptor β-GST fusion protein (ER-β) (Homo sapiens, UniProt Q92731); test: Assay of ligand using coactivator SRC1-bound plate, ER-β; settings: HRP-labeled anti-GST antibody, 450 nm, FIG. 6
# T4 construct: made in house; host or cells: Escherichia coli BL21
# T4 sequence (Q92731 264-498 limits assumed): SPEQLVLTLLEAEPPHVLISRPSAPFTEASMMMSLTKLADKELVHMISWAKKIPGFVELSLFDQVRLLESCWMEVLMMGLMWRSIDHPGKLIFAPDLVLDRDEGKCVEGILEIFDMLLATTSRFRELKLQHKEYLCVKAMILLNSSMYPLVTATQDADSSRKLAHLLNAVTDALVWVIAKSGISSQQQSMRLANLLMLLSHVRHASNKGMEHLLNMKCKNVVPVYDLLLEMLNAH
Compound,"OD, agonist dose dependence [1]","OD, agonist dose dependence [2]","OD (binding of receptor to immobilized coactivator), agonist mode [3]","OD (binding of receptor to immobilized coactivator), agonist mode [4]"
O=S(=O)(c1ccccc1)N(CC(F)(F)F)c1ccc(C(O)(C(F)(F)F)C(F)(F)F)cc1 [TO-901317],OD was increased in a manner dependent on the dose of the corresponding agonist,OD was increased in a manner dependent on the dose of the corresponding agonist,,
CC(C)(c1ccc(O)cc1)c1ccc(O)cc1 [bisphenol A],,,increase in OD was observed,increase in OD was observed
CC/C(=C(/CC)c1ccc(O)cc1)c1ccc(O)cc1 [diethylstilbestrol],,,,increase in OD was observed
nonylphenol,,,increase in OD was observed,increase in OD was observed

# Reference: patent publication US7767409B2, “Method for detection of substance bound to nuclear receptor” (Fujikura Kasei Co., Ltd., priority 2005, dated 2010)
